Measurements reported in publication PMC11792831, “Design and synthesis of doublecortin-like kinase 1 inhibitors and their bioactivity evaluation” (Journal of Enzyme Inhibition and Medicinal Chemistry, 2023).
pIC50: −log10 of the molar value.

Columns and labels:
[1] = target: T1, LRRK2 (Homo sapiens, UniProt Q5S007); assay: In vitro LRRK2 kinase activity assay (Eurofins); format: biochemical; settings: for activity at 1 µM: remaining kinase activity at 1 uM compound, 100% = no inhibition, 0% = complete inhibition
T1 construct: purchased Eurofins (Belgium), contract assay service
Procedure: All compounds were tested for their kinase inhibitory activity at the concentration of 1 μM. […] Compounds with high activity or good selectivity were selected for further IC50 determination (Table 2).
(§1) Eurofins (Belgium) conducted in vitro DCLK1 and LRRK2 kinase activity assays. Compounds were sent as dry powders to Eurofins.

[2] = system: HCT116; assay: In vitro cytotoxicity / anti-proliferation assay (CCK8); format: cell-based; settings: Homo sapiens, HCT-116, colorectal cancer cell line HCT116, 72 h
Procedure: To determine whether DCLK1 was required for tumour cell proliferation, the cytotoxicity of compounds was evaluated in colorectal cancer cell line HCT116. HCT116 was treated with compounds for 72 h, and the cell viability was determined using CCK8 assay (Figure 4). The antiproliferative effects of most compounds on HCT116 were correlated with their DCLK1 inhibitory activities, except for compounds D1 and D2. The poor cytotoxicity of compounds D1 and D2 may be attributed to their poor cell membrane permeability due to the negatively charged carboxylates. […] Overall, targeting DCLK1 inhibited the proliferation of HCT116, indicating the importance of DCLK1 in tumour growth.
A 96-well plate (3599, Corning, USA) was inoculated with 100 μL of complete medium containing 10 000 cells, and the experimental, control, and blank groups were established. Three parallel wells were used per concentration. After 10 h, media from the experimental and control groups were replaced with a complete medium containing the indicated concentration of the compound. Cells were incubated for 72 h before 10 μL of CCK8 reagent (CA1210, Solarbio, China) was added to each well and incubated for 1 h. The absorbance at 450 nm was measured with a microplate reader (Tecan, Switzerland). The IC50 was determined using GraphPad Prism 8 and nonlinear regression curve fitting.

[3] = target: T2, DCLK1 (Homo sapiens, UniProt O15075); assay: In vitro DCLK1 kinase activity assay (Eurofins); format: biochemical; settings: for Selectivity (IC50 of DCLK1/IC50 of LRRK2): ratio of IC50 values; for Selectivity (DCLK1 activity/LRRK2 activity): ratio of remaining activities at 1 uM; for pIC50: read-out: IC50 of DCLK1; for activity at 1 µM: remaining kinase activity at 1 uM compound, 100% = no inhibition, 0% = complete inhibition, read-out: DCLK1 activity (%)
T2 construct: purchased Eurofins (Belgium), contract assay service
T2 sequence (O15075 1-740): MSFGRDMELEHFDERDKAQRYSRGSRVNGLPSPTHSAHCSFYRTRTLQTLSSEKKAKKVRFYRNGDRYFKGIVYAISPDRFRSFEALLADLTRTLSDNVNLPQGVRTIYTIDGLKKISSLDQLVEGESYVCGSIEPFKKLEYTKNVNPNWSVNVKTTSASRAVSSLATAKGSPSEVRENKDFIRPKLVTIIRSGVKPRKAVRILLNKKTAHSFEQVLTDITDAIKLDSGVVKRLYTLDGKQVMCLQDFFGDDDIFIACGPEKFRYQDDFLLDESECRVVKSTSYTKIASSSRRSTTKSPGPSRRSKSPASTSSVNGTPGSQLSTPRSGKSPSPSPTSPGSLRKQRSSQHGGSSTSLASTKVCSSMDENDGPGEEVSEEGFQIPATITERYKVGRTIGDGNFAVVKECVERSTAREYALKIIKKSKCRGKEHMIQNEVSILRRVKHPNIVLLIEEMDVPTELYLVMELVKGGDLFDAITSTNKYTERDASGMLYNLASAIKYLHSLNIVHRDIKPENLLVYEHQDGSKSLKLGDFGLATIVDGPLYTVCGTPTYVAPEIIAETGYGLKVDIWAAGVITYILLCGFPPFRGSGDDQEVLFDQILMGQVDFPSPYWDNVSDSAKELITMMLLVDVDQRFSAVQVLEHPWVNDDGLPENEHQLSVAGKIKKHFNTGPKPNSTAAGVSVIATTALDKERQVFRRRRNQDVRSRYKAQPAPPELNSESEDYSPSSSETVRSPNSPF
Source text: as §1

T1 sequence (Q5S007 whole entry): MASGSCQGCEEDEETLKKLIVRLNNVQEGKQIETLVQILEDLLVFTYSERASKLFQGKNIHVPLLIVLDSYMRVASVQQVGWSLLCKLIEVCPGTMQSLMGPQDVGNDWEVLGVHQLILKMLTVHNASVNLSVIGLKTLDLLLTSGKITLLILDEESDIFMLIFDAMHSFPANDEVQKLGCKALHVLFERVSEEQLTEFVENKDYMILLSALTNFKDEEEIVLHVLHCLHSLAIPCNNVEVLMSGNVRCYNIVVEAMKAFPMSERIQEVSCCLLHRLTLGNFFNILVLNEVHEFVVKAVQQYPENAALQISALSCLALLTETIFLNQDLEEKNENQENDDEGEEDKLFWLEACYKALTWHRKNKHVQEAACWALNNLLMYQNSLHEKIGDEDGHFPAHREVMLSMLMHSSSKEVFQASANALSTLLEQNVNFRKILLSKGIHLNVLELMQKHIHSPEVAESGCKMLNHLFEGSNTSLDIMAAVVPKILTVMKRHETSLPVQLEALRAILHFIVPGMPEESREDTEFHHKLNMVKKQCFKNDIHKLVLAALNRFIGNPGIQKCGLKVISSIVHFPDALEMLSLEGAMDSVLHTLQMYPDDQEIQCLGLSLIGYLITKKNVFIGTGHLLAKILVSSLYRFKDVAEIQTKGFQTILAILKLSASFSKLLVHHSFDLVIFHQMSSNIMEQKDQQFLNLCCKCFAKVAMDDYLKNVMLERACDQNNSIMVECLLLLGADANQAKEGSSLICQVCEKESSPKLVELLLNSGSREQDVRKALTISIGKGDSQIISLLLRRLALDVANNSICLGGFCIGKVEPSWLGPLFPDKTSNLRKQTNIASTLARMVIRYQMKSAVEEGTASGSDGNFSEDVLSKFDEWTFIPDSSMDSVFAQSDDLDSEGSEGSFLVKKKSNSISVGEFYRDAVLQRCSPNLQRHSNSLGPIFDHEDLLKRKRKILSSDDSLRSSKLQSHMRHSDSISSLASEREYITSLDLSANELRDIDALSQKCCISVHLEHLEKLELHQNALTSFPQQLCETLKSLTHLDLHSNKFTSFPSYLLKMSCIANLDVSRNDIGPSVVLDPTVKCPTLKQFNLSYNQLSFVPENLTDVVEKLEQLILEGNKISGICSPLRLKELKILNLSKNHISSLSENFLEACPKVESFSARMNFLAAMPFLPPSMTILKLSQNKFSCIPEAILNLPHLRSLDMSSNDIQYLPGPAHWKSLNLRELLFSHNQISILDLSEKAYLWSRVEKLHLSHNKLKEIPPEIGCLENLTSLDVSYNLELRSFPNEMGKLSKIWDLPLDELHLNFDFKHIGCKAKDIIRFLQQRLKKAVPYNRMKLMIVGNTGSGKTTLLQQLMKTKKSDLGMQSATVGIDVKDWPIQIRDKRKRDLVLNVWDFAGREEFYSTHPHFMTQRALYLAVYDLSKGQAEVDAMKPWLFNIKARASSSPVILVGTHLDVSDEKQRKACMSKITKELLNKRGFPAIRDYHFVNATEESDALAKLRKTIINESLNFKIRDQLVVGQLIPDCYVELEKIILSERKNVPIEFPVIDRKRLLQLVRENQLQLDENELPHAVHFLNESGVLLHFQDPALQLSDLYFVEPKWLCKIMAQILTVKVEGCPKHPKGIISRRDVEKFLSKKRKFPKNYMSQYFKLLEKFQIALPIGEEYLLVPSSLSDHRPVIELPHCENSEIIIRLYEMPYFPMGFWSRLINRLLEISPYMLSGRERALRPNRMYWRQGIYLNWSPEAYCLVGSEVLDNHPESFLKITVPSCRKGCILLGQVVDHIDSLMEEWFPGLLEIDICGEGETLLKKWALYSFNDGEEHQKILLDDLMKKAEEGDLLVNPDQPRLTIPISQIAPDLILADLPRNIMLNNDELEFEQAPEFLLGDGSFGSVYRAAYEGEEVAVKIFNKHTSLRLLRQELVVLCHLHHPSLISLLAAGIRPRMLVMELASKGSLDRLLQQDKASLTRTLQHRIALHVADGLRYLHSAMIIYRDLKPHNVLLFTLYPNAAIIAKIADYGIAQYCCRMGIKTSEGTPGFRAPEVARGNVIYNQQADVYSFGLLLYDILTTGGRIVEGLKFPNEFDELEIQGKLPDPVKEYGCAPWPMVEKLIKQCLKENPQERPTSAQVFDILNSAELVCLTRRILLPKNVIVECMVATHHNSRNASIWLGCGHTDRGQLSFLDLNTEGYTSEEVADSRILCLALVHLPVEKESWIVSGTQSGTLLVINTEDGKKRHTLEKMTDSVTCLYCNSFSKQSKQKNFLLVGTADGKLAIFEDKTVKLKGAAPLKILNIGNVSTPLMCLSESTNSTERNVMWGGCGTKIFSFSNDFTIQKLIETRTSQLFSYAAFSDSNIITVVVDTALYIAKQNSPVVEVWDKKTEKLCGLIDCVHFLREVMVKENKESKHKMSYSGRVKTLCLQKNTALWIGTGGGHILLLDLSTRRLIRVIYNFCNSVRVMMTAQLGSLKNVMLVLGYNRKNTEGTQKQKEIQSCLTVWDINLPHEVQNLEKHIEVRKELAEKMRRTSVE

Row | SMILES | pIC50 [1] | activity at 1 µM [1] [%] | melting point [°C] | pIC50 [2] | Selectivity (IC50 of DCLK1/IC50 of LRRK2) [3] | Selectivity (DCLK1 activity/LRRK2 activity) [3] | pIC50 [3] | activity at 1 µM [3] [%]
1 | CCOc1cc(N2CCC(O)CC2)ccc1Nc1ncc2c(n1)N(C)c1ccc(F)cc1C(=O)N2C [Compound A6, 2-((2-Ethoxy-4-(4-hydroxypiperidin-1-yl)phenyl)amino)-8-fluoro-5,11-dimethyl-5,11-dihydro-6H-benzo[e]pyrimido[5,4-b][1,4]diazepin-6-one] | < 6.00 | 51 | 166 to 167 | 4.61 | <0.37 | 0.37 | 6.44 | 19
2 | CCOc1cc(N2CCC(O)CC2)ccc1Nc1ncc2c(n1)N(C)c1cccc(F)c1C(=O)N2C [Compound A9, 2-((2-Ethoxy-4-(4-hydroxypiperidin-1-yl)phenyl)amino)-7-fluoro-5,11-dimethyl-5,11-dihydro-6H-benzo[e]pyrimido[5,4-b][1,4]diazepin-6-one] | < 6.00 | 50 | 174 to 175 | 4.69 | <0.34 | 0.34 | 6.47 | 17
3 | CCOc1cc(N2CCC(O)CC2)ccc1Nc1ncc2c(n1)N(C)c1ccccc1C(=O)N2CC [Compound B3, 2-((2-Ethoxy-4-(4-hydroxypiperidin-1-yl)phenyl)amino)-5-ethyl-11-methyl-5,11-dihydro-6H-benzo[e]pyrimido[5,4-b][1,4]diazepin-6-one] | < 6.00 | 70 | 162 to 163 | 4.48 | <0.32 | 0.40 | 6.49 | 28
4 | COc1cc(NC(=O)CC(=O)O)ccc1Nc1ncc2c(n1)N(C)c1ccccc1C(=O)N2C [Compound D1, 3-((4-((5,11-Dimethyl-6-oxo-6,11-dihydro-5H-benzo[e]pyrimido[5,4-b][1,4]diazepin-2-yl)amino)-3-methoxyphenyl)amino)-3-oxopropanoic acid] | < 6.00 | 56 | 187 to 188 | < 4.00 | <0.05 | 0.13 | 7.33 | 7
5 | COc1cc(NC(=O)CCC(=O)O)ccc1Nc1ncc2c(n1)N(C)c1ccccc1C(=O)N2C [Compound D2, 4-((4-((5,11-Dimethyl-6-oxo-6,11-dihydro-5H-benzo[e]pyrimido[5,4-b][1,4]diazepin-2-yl)amino)-3-methoxyphenyl)amino)-4-oxobutanoic acid] | < 6.00 | 49 | 237 to 238 | < 4.00 | <0.07 | 0.20 | 7.15 | 10
6 | CCOc1cc(N2CCC(C(=O)O)CC2)ccc1Nc1ncc2c(n1)N(C)c1ccccc1C(=O)N2C [Compound D3, 1-(4-((5,11-Dimethyl-6-oxo-6,11-dihydro-5H-benzo[e]pyrimido[5,4-b][1,4]diazepin-2-yl)amino)-3-ethoxyphenyl)piperidine-4-carboxylic acid] | < 6.00 | 34 | 159 to 160 | 4.67 | <0.34 | 0.59 | 6.47 | 20
7 | CCOc1cc(N2CCSCC2)ccc1Nc1ncc2c(n1)N(C)c1ccccc1C(=O)N2C [Compound D4, 2-((2-Ethoxy-4-thiomorpholinophenyl)amino)-5,11-dimethyl-5,11-dihydro-6H-benzo[e]pyrimido[5,4-b][1,4]diazepin-6-one] | 6.37 | 33 | 190 to 191 | 4.54 | 0.64 | 0.55 | 6.57 | 18
